Assay [1] relates to Escherichia coli (ATCC25922). Description: MIC, broth microdilution (CLSI), Escherichia coli ATCC25922. Background: Broth dilution looks for growth in wells or tubes with falling amounts of substance.
Experimental: Initial minimal inhibitory concentration (MIC) tests were made on two bacterial strains: • Escherichia coli (ATCC25922) • Staphylococcus aureus (ATCC25923).
Minimal Inhibitory Concentration (MIC)
MIC values were determined using the standard broth microdilution procedure based on the guidelines by the Clinical and Laboratory Standards Institute (CLSI). Briefly, the compounds were dissolved in DMSO to 10 mM. They were diluted in cation-adjusted Mueller-Hinton broth (CAMHB) to four times the highest concentration tested. A serial 2-fold dilution in CAMHB was done in microdilution plates. The inoculum of bacterial strain to be tested was prepared by making a suspension of colonies from an 18 to 24 hours old plate in CAMHB. The inoculum was diluted so that, after inoculation, each well contained approximately 5×10^5 CFU/mL. To a volume of 50 μl compound in CAMHB an equal volume of inoculum was added. The tray was sealed in a plastic bag and incubated at 35° C. for 16 to 20 hours. To aid in the detection of growth the dye resazurin was added to a final concentration 0.001% and incubated at room temperature for 1 h. Reduction of resazurin, and therefore bacterial growth, was seen as a change from blue to pink.
Assay [2] relates to Staphylococcus aureus (ATCC25923). Description: MIC, broth microdilution (CLSI), Staphylococcus aureus ATCC25923.
The subject of assay [3] is E. coli RNase P RNA, M1 RNA. Kind of assay: Inhibition of bacterial RNase P activity, IC50 determination (cleavage of pATSerUG by M1 RNA). The assay is classed as biochemical. As to conditions: NI = No inhibition.
Assay [4] deals with Staphylococcus aureus subsp. aureus (ATCC29213). Description: MIC, broth microdilution (CLSI), Staphylococcus aureus subsp. aureus ATCC29213. In kind it is cell-based. To be noted: ATCC29213, Table 15, read-out: S. aureus ("wound") (MIC).
The mark [5] stands for this setting: ATCC25922, read-out: E. coli MIC, Table 15, NI = No inhibition.
[6] abbreviates: ATCC25923, read-out: S. aureus ("Clinical") MIC.

Converted amounts (≈) assume the structure as drawn. Like-named read-outs stand apart in the source and are kept apart here. Bounds are passed on as bounds.

As a reminder, the MIC is the lowest concentration found to suppress growth. A word on the IC50: it is the point on the concentration scale where inhibition reaches its midpoint. Consider `Nc1cc(C(F)(F)F)cc2c1N(CCCN1CCNCC1)c1ccccc1S2` [compound 83, 10-(3-(piperazin-1-yl)propyl)-3-(trifluoromethyl)-10H-phenothiazin-1-amine], for which the MIC in assay [1] (setting [5]) was more than 100 µg/mL; in assay [2] (setting [6]), 32 µg/mL (≈ 78.3 µM). Besides, the IC50 in assay [3] is more than 100 µM.

Consider `CN(C)CCCN1c2ccccc2Sc2cc(C(F)(F)F)cc(NC(N)=S)c21` [compound 87, 1-(10-(3-(Dimethylamino)propyl)-3-(trifluoromethyl)-10H-phenothiazin-1-yl)thiourea], for which the values for the MIC in assay [1] (setting [5]) and in assay [2] (setting [6]) were more than 100 µg/mL and 55 µg/mL (≈ 129 µM), respectively. The same compound had a concentration for half-maximal inhibition (IC50) in assay [3] of more than 100 µM.

As for `CN1CCN(CCCN2c3ccccc3Sc3cc(C(F)(F)F)cc(N)c32)CC1` [compound 88, 10-(3-(4-methylpiperazin-1-yl)propyl)-3-(trifluoromethyl)-10H-phenothiazin-1-amine], the MIC in assay [1] (setting [5]) was more than 100 µg/mL; in assay [2] (setting [6]) it was 27 µg/mL (≈ 63.9 µM). In addition, the IC50 in assay [3] was more than 100 µM.

For the compound `CN(C)CCCN1c2ccccc2Sc2cc(Cl)cc(N)c21` [compound 89, 3-chloro-10-(3-(dimethylamino)propyl)-10H-phenothiazin-1-amine], the values for the MIC in assay [1] (setting [5]) and in assay [2] (setting [6]) were more than 100 µg/mL and 85 µg/mL (≈ 255 µM), respectively. In addition, the half-maximal inhibitory concentration (IC50) in assay [3] was more than 100 µM.

In the case of `CC(N)CC(=O)Nc1cc(C(F)(F)F)cc2c1N(CCCN(C)C)c1ccccc1S2` (stereo not shown) [compound 90, 3-amino-N-(10-(3-(dimethylamino)propyl)-3-(trifluoromethyl)-10H-phenothiazin-1-yl)butanamide], the MIC in assay [1] (setting [5]) was more than 100 µg/mL; in assay [2] (setting [6]), 64 µg/mL (≈ 141 µM). In assay [3], this compound returned an IC50 of more than 100 µM.

On to `O=C(Nc1cc(C(F)(F)F)cc2c1Nc1ccccc1S2)C1CCCNC1` (stereo not shown) [compound 91, N-(3-(trifluoromethyl)-10H-phenothiazin-1-yl)piperidine-3-carboxamide], for which the MIC in assay [1] (setting [5]) worked out at 32 µg/mL (≈ 81.3 µM); in assay [2] (setting [6]), 8 µg/mL (≈ 20.3 µM). In addition, in assay [3], the IC50 is more than 100 µM.

For the compound `NC1CCC(C(=O)Nc2cc(C(F)(F)F)cc3c2Nc2ccccc2S3)CC1` (stereo not shown) [compound 95, 4-amino-N-(3-(trifluoromethyl)-10H-phenothiazin-1-yl)cyclohexane-carboxamide], the values for the MIC in assay [1] (setting [5]) and in assay [2] (setting [6]) were 64 µg/mL (≈ 157 µM) and 32 µg/mL (≈ 78.5 µM), respectively. In addition, the IC50 in assay [3] was determined as 94 µM.

With `NCCCNc1cc(C(F)(F)F)cc2c1Nc1ccccc1S2` [compound 97, N1-(3-(trifluoromethyl)-10H-phenothiazin-1-yl)propane-1,3-diamine], the MIC in assay [1] (setting [5]) turned out to be 8 µg/mL (≈ 23.6 µM); in assay [2] (setting [6]), 4 µg/mL (≈ 11.8 µM). Also, the IC50 in assay [3] was more than 100 µM.

With `NCCNC(=S)Nc1cc(C(F)(F)F)cc2c1Nc1ccccc1S2` [compound 98, 1-(2-aminoethyl)-3-(3-(trifluoro-methyl)-10H-phenothiazin-1-yl)thiourea], the minimal inhibitory concentration (MIC) was 16 µg/mL (≈ 41.6 µM) in assay [1] (setting [5]) and 8 µg/mL (≈ 20.8 µM) in assay [2] (setting [6]). Besides, in assay [3], the IC50 is more than 100 µM.

As to `O=C(Nc1cc(C(F)(F)F)cc2c1Nc1ccccc1S2)[C@@H]1CCCNC1` [compound 100, (R)-N-(3-(trifluoromethyl)-10H-phenothiazin-1-yl)piperidine-3-carboxamide], the MIC came out at 32 µg/mL (≈ 81.3 µM) in assay [1] (setting [5]) and 16 µg/mL (≈ 40.7 µM) in assay [2] (setting [6]). In assay [3], this compound came in with an IC50 of more than 100 µM.

In the case of `O=C(CCN1CCNCC1)Nc1cc(C(F)(F)F)cc2c1Nc1ccccc1S2` [compound 101, 3-(piperazin-1-yl)-N-(3-(trifluoromethyl)-10H-phenothiazin-1-yl)propanamide], the MIC came to 64 µg/mL (≈ 151 µM) in assay [1] (setting [5]) and 32 µg/mL (≈ 75.7 µM) in assay [2] (setting [6]). The compound also returned an IC50 in assay [3] of more than 100 µM.

With `O=C(Nc1cc(C(F)(F)F)cc2c1Nc1ccccc1S2)[C@H]1CCCNC1` [compound 106, N-(3-(trifluoromethyl)-10H-phenothiazin-1-yl)piperidine-3-carboxamide], the minimum inhibitory concentration (MIC) in assay [1] (setting [5]) came out at 64 µg/mL (≈ 163 µM); in assay [2] (setting [6]), 32 µg/mL (≈ 81.3 µM). Further, in assay [3], the IC50 was more than 100 µM.

On to `NC1CCCCC1C(=O)Nc1cc(C(F)(F)F)cc2c1Nc1ccccc1S2` (stereo not shown) [compound 113, 2-amino-N-(3-(trifluoromethyl)-10H-phenothiazin-1-yl)cyclohexane-carboxamide], for which the MIC in assay [1] (setting [5]) was more than 100 µg/mL; in assay [2] (setting [6]), 7 µg/mL (≈ 17.2 µM).

`NC1CC(C(=O)Nc2cc(C(F)(F)F)cc3c2Nc2ccccc2S3)CCN1` (stereo not shown) [compound 139, 2-amino-N-(3-(trifluoromethyl)-10H-phenothiazin-1-yl)piperidine-4-carboxamide]: the MIC in assay [1] (setting [5]) is more than 100 µg/mL; in assay [2] (setting [6]), 52 µg/mL (≈ 127 µM).

Turning to `CN(C)CCCN1c2ccccc2Sc2cc(-c3cc4cc(C#N)ccc4[nH]3)ccc21.O=C(O)C(F)(F)F` [compound 151, 2-(10-(3-(dimethylamino)propyl)-10H-phenothiazin-3-yl)-1H-indole-5-carbonitrile 2,2,2-trifluoroacetate salt], the results for the MIC in assay [1] (setting [5]) and in assay [2] (setting [6]) were more than 100 µg/mL and 3 µg/mL, respectively.

With `NCCN1CCOC[C@H]1C(=O)Nc1cc(C(F)(F)F)cc2c1Nc1ccccc1S2.O=C(O)C(F)(F)F` [compound 157, (S)-4-(2-aminoethyl)-N-(3-(trifluoro-methyl)-10H-phenothiazin-1-yl)morpholine-3-carboxamide 2,2,2-trifluoroacetate], the MIC in assay [1] (setting [5]) is more than 100 µg/mL; in assay [2] (setting [6]), 71 µg/mL.

Take `NC1CCCC(CNc2cc(C(F)(F)F)cc3c2Nc2ccccc2O3)C1` (stereo not shown) [compound 164, N-((3-aminocyclohexyl)methyl)-3-(trifluoromethyl)-10H-phenoxazin-1-amine]: the MIC in assay [1] (setting [5]) was 97 µg/mL (≈ 257 µM); in assay [2] (setting [6]), 24 µg/mL (≈ 63.6 µM).

Regarding `NC1CCCC(CC(=O)Nc2cc(C(F)(F)F)cc3c2Nc2ccccc2S3)C1.O=C(O)C(F)(F)F` (stereo not shown) [compound 165, 2-(3-aminocyclohexyl)-N-(3-(trifluoromethyl)-10H-phenothiazin-1-yl)acetamide 2,2,2-trifluoroacetate], the MIC in assay [1] (setting [5]) came out at 34 µg/mL; in assay [2] (setting [6]), 17 µg/mL.

Consider `NCC(CCl)Nc1cc(C(F)(F)F)cc2c1Nc1ccccc1S2` (stereo not shown) [compound 178, 3-chloro-N2-(3-(trifluoromethyl)-10H-phenothiazin-1-yl)propane-1,2-diamine], for which the MIC is 48 µg/mL (≈ 128 µM) in assay [1] (ATCC25922, read-out: E. coli MIC) and 6 µg/mL (≈ 16.1 µM) in assay [2] (ATCC25923, read-out: S. aureus ("Clinical") MIC, Table 15).

As to `NCCC1CCC(CNc2cc(C(F)(F)F)cc3c2Nc2ccccc2S3)CC1` (stereo not shown) [compound 179, N-((4-(2-aminoethyl)cyclohexyl)methyl)-3-(trifluoromethyl)-10H-phenothiazin-1-amine], the MIC amounted to 12 µg/mL (≈ 28.5 µM) in assay [1] (setting [5]) and 3 µg/mL (≈ 7.12 µM) in assay [2] (setting [6]).

On to `OCC1CCC(Nc2cc(C(F)(F)F)cc3c2Nc2ccccc2S3)CC1` (stereo not shown) [compound 192, (4-((3-(trifluoromethyl)-10H-phenothiazin-1-yl)amino)cyclohexyl) methanol], for which the MIC in assay [2] (setting [6]) is 6 µg/mL (≈ 15.2 µM).

As to `Cc1c(-c2ccc3c(c2)Sc2ccccc2N3CCCN(C)C)[nH]c2ccccc12` [compound 198, N,N-dimethyl-3-(3-(3-methyl-1H-indol-2-yl)-10H-phenothiazin-10-yl)propan-1-amine], the minimum inhibitory concentration (MIC) in assay [2] (setting [6]) came to 3 µg/mL (≈ 7.25 µM).

`Nc1cc(C(F)(F)F)cc2c1Nc1ccc(-c3cc4ccccc4[nH]3)cc1S2` [compound 205, 7-(1H-indol-2-yl)-3-(trifluoromethyl)-10H-phenothiazin-1-amine]: the MIC in assay [2] (setting [6]) amounted to 25 µg/mL (≈ 62.9 µM). In assay [3], it took 364 µM to reach half-maximal inhibition (IC50).

`NCCN1c2ccccc2Sc2cc(-c3cc4ccccc4[nH]3)ccc21` [compound 213, 2-(3-(1H-indol-2-yl)-10H-phenothiazin-10-yl)ethanamine]: the MIC in assay [1] (setting [5]) amounted to 23 µg/mL (≈ 64.3 µM); in assay [2] (setting [6]), 3 µg/mL (≈ 8.39 µM).

Consider `NCCNCCN1CCC(Nc2cc(C(F)(F)F)cc3c2Nc2ccccc2S3)CC1` [compound 219, N1-(2-(4-((3-(trifluoromethyl)-10H-phenothiazin-1-yl)amino)piperidin-1-yl)ethyl)ethane-1,2-diamine], for which the MIC in assay [1] (setting [5]) worked out at 14 µg/mL (≈ 31 µM); in assay [2] (setting [6]), 7 µg/mL (≈ 15.5 µM).

With `NCCN1CCC(Nc2cc(C(F)(F)F)cc3c2Nc2ccccc2S3)C1` (stereo not shown) [compound 228, N-(1-(2-aminoethyl)pyrrolidin-3-yl)-3-(trifluoromethyl)-10H-phenothiazin-1-amine], the MIC in assay [1] (setting [5]) came to 13 µg/mL (≈ 33 µM); in assay [2] (setting [6]), 6 µg/mL (≈ 15.2 µM).

`CN(C)CCCN1c2ccc(-c3cc4ccccc4[nH]3)cc2Sc2cc([N+](=O)[O-])ccc21` [compound 241, 3-(3-(1H-indol-2-yl)-7-nitro-10H-phenothiazin-10-yl)-N,N-dimethylpropan-1-amine]: in assay [2] (setting [6]), the MIC turned out to be 4 µg/mL (≈ 9 µM).

Consider `FC(F)(F)c1cc(NC2CCNCC2)c2c(c1)Sc1cc(-c3cc4ccccc4[nH]3)ccc1N2` [compound 243, 7-(1H-indol-2-yl)-N-(piperidin-4-yl)-3-(trifluoromethyl)-10H-phenothiazin-1-amine], for which the MIC in assay [2] (setting [6]) is 15 µg/mL (≈ 31.2 µM). The same compound returned an IC50 in assay [3] of 39 µM.

Take `NC(Cc1c[nH]c2ccccc12)C(=O)Nc1cc(C(F)(F)F)cc2c1Nc1ccccc1S2` (stereo not shown) [compound 253, 2-amino-3-(1H-indol-3-yl)-N-(3-(trifluoromethyl)-10H-phenothiazin-1-yl)propanamide]: the MIC in assay [2] (setting [6]) turned out to be 2 µg/mL (≈ 4.27 µM).

With `COc1ccc2c(c1)Sc1cc(-c3cc4ccccc4[nH]3)ccc1N2CCCN(C)C` [compound 254, 3-(3-(1H-indol-2-yl)-7-methoxy-10H-phenothiazin-10-yl)-N,N-dimethylpropan-1-amine], in assay [2] (setting [6]), the MIC amounted to 2 µg/mL (≈ 4.66 µM).

For the compound `CC1CC(C)N1c1ccc2c(c1)Sc1cc(C(F)(F)F)cc(NC3CCN(CCN)CC3)c1N2.Cl` (stereo not shown) [compound 337, N-(1-(2-aminoethyl)piperidin-4-yl)-7-(2,4-dimethyl-azetidin-1-yl)-3-(trifluoromethyl)-10H-phenothiazin-1-amine hydrochloride], the minimum inhibitory concentration (MIC) was 4 µg/mL in assay [1] (setting [5]) and 2 µg/mL in assay [4]. Besides, the IC50 in assay [3] was determined as 26 µM.
